System: subjects with dIBS
Experiment: Study of rifaximin BID in subjects with dIBS: adequate relief of IBS symptoms and bloating
Format: in vivo, human
Conditions: for Percentage of Subjects with Number of Weeks with Adequate Relief of Bloating Symptoms / Percentage of Subjects with Number of Weeks with Adequate Relief of IBS Symptoms: RFX 550 mg BID, N = 191, ITT
Experimental: This example relates to a study of rifaximin in subjects with dIBS. […] There were two measures of efficacy assessed. Subjects were questioned on the relief of overall IBS symptoms and bloating. […] The analyses defined success as a “yes” response to questions regarding adequate relief.
All subpopulations in the study responded to therapy. Baseline severity was determined using 7-point Lickert scales during screening for Abdominal Pain/Discomfort and Bloating, and the number, type (normal, hard, loose) and urgency of bowel movements.
Duration of effect was assessed in a follow-up period. Subjects that responded in the 4 week treatment period were followed for an additional 3 months.
The effect of treatment on the percentage of subjects who reported adequate relief of IBS and bloating symptoms for at least two of the final three weeks during the treatment phase (Weeks 1 to 4) is shown in Tables 3-5 and FIGS. 4-6 below.
Two measures of efficacy were assessed independently. The first was the proportion of subjects who provided a ‘yes’ response to the weekly SGA question: “In the past 7 days, have you had adequate relief of your IBS symptoms? (yes/no)”. The second endpoint was the proportion of subjects who provide a ‘yes’ response to the weekly individual symptom question: “In the past 7 days, have you had adequate relief of your symptom of bloating? (yes/no)”. Durability was based on the proportion of subjects that had adequate relief over the entire treatment phase.
It is reported herein that the severity of baseline symptoms of abdominal pain and bloating influenced the response to rifaximin treatment. The co-primary endpoints in this analysis assessed weekly yes/no responses to questions regarding adequate relief of global IBS symptoms and IBS-associated bloating. Severity of baseline IBS symptoms was evaluated as a potential confounder of clinical response and was categorized as mild/moderate or severe based on a mean score of ≤4 vs. >4 (on a 7-point scale) for bloating and abdominal pain.
The Weekly yes/no responses to questions regarding adequate relief of global IBS symptoms and IBS-associated bloating were assessed. Clinical response was defined as adequate relief for 2 of the final 3 treatment weeks (wk 2, 3, or 4). Severity of baseline IBS symptoms was evaluated as a potential confounder of clinical response and was categorized as mild/moderate or severe based on a mean score of ≤4 versus >4 (on a 7-point scale (0=not bothersome; 6=very bothersome)) for bloating and abdominal pain.

(2S,16Z,18E,20S,21S,22R, 23R,24R,25S,26S,27S,28E)-5,6,21,23,25 Pentahydroxy-27-methoxy -2,4,11,16,20,22,24,26-octamethyl-2,7-(epoxypentadeca-(1,11,13)trienimino)benzofuro (4,5-e) pyrido(1,2,-a) benzimidazole-1,15(2H)-dione,25-acetate [Rifaximin]
Percentage of Subjects with Number of Weeks with Adequate Relief of Bloating Symptoms (0 weeks): 35%
Percentage of Subjects with Number of Weeks with Adequate Relief of IBS Symptoms (0 weeks): 33%
Adequate relief of IBS related symptoms (SGA) and IBS-related bloating (IBS-B) (550 mg BID for 2 weeks): statistically significant relief
Percentage of Subjects with Number of Weeks with Adequate Relief of Bloating Symptoms (1 week): 14%
Percentage of Subjects with Number of Weeks with Adequate Relief of IBS Symptoms (1 week): 11%
Percentage of Subjects with Number of Weeks with Adequate Relief of Bloating Symptoms (2 weeks): 15%
Percentage of Subjects with Number of Weeks with Adequate Relief of IBS Symptoms (2 weeks): 15%
Percentage of Subjects with Number of Weeks with Adequate Relief of Bloating Symptoms (3 weeks): 20%
Percentage of Subjects with Number of Weeks with Adequate Relief of IBS Symptoms (3 weeks): 23%
Percentage of Subjects with Number of Weeks with Adequate Relief of Bloating Symptoms (4 weeks): 14%
Percentage of Subjects with Number of Weeks with Adequate Relief of IBS Symptoms (4 weeks): 16%
Treatment effect (Bloating) (Age <65): 6.8%
Treatment effect (IBS Sx) (Age <65): 6.9%
Treatment effect (Bloating) (Age ≥65): 3.2%
Treatment effect (IBS Sx) (Age ≥65): 19.1%
Treatment effect (Bloating) (Diabetes History: N): 7.4%
Treatment effect (IBS Sx) (Diabetes History: N): 9.5%
Treatment effect (Bloating) (Diabetes History: Y): −5.6%
Treatment effect (IBS Sx) (Diabetes History: Y): −12.7%
Treatment effect (Bloating) (Disease Duration: 10-20 y): 11.7%
Treatment effect (IBS Sx) (Disease Duration: 10-20 y): 20.1%
Treatment effect (Bloating) (Disease Duration: >20 y): 35.1%
Treatment effect (IBS Sx) (Disease Duration: >20 y): 46.6%
Treatment effect (Bloating) (Disease Duration: ≤10 y): 2.8%
Treatment effect (IBS Sx) (Disease Duration: ≤10 y): 1.8%
Adequate Relief of Bloating at the End of the Treatment Phase: Failure (Female, RFX 275 2 w (N = 95)): 52 (64.2%) n (%)
Adequate Relief of Bloating at the End of the Treatment Phase: Success (Female, RFX 275 2 w (N = 95)): 29 (35.8%) n (%)
Adequate Relief of IBS Symptoms at the End of the Treatment Phase: Failure (Female, RFX 275 2 w (N = 95)): 46 (56.8%) n (%)
Adequate Relief of IBS Symptoms at the End of the Treatment Phase: Success (Female, RFX 275 2 w (N = 95)): 35 (43.2%) n (%)
Adequate Relief of Bloating at the End of the Treatment Phase: Failure (Female, RFX 550 2 w (N = 99)): 45 (61.6%) n (%)
Adequate Relief of Bloating at the End of the Treatment Phase: Success (Female, RFX 550 2 w (N = 99)): 28 (38.4%) n (%)
Adequate Relief of IBS Symptoms at the End of the Treatment Phase: Failure (Female, RFX 550 2 w (N = 99)): 44 (60.3%) n (%)
Adequate Relief of IBS Symptoms at the End of the Treatment Phase: Success (Female, RFX 550 2 w (N = 99)): 29 (39.7%) n (%)
Adequate Relief of Bloating at the End of the Treatment Phase: Failure (Female, RFX 550 2 w (N = 191)): 74 (54.0%) n (%)
Adequate Relief of Bloating at the End of the Treatment Phase: Success (Female, RFX 550 2 w (N = 191)): 63 (46.0%) n (%)
Adequate Relief of IBS Symptoms at the End of the Treatment Phase: Failure (Female, RFX 550 2 w (N = 191)): 66 (48.2%) n (%)
Adequate Relief of IBS Symptoms at the End of the Treatment Phase: Success (Female, RFX 550 2 w (N = 191)): 71 (51.8%) n (%)
odds ratio, Adequate Relief of Bloating at the End of the Treatment Phase (Female, RFX 550 2 w vs. PBO): Comparison of RFX 550 2 w vs. PBO p-value: 0.5366, odds ratio: 1.166 (0.716, 1.898)
odds ratio, Adequate Relief of IBS Symptoms at the End of the Treatment Phase (Female, RFX 550 2 w vs. PBO): Comparison of RFX 550 2 w vs. PBO p-value: 0.7608, odds ratio: 1.078 (0.665, 1.747)
Adequate Relief of Bloating at the End of the Treatment Phase: Failure (Female, RFX 550 4 w (N = 98)): 44 (57.9%) n (%)
Adequate Relief of Bloating at the End of the Treatment Phase: Success (Female, RFX 550 4 w (N = 98)): 32 (42.1%) n (%)
Adequate Relief of IBS Symptoms at the End of the Treatment Phase: Failure (Female, RFX 550 4 w (N = 98)): 42 (55.3%) n (%)
Adequate Relief of IBS Symptoms at the End of the Treatment Phase: Success (Female, RFX 550 4 w (N = 98)): 34 (44.7%) n (%)
Treatment effect (Bloating) (Gender: F): 3.9%
Treatment effect (IBS Sx) (Gender: F): 3.5%
Treatment effect (Bloating) (Gender: M): 13.6%
Treatment effect (IBS Sx) (Gender: M): 21%
Adequate Relief of Bloating at the End of the Treatment Phase: Failure (Male, RFX 275 2 w (N = 95)): 8 (57.1%) n (%)
Adequate Relief of Bloating at the End of the Treatment Phase: Success (Male, RFX 275 2 w (N = 95)): 6 (42.9%) n (%)
Adequate Relief of IBS Symptoms at the End of the Treatment Phase: Failure (Male, RFX 275 2 w (N = 95)): 9 (64.3%) n (%)
Adequate Relief of IBS Symptoms at the End of the Treatment Phase: Success (Male, RFX 275 2 w (N = 95)): 5 (35.7%) n (%)
Adequate Relief of Bloating at the End of the Treatment Phase: Failure (Male, RFX 550 2 w (N = 99)): 16 (61.5%) n (%)
Adequate Relief of Bloating at the End of the Treatment Phase: Success (Male, RFX 550 2 w (N = 99)): 10 (38.5%) n (%)
Adequate Relief of IBS Symptoms at the End of the Treatment Phase: Failure (Male, RFX 550 2 w (N = 99)): 14 (53.8%) n (%)
Adequate Relief of IBS Symptoms at the End of the Treatment Phase: Success (Male, RFX 550 2 w (N = 99)): 12 (46.2%) n (%)
Adequate Relief of Bloating at the End of the Treatment Phase: Failure (Male, RFX 550 2 w (N = 191)): 29 (53.7%) n (%)
Adequate Relief of Bloating at the End of the Treatment Phase: Success (Male, RFX 550 2 w (N = 191)): 25 (46.3%) n (%)
Adequate Relief of IBS Symptoms at the End of the Treatment Phase: Failure (Male, RFX 550 2 w (N = 191)): 25 (46.3%) n (%)

Reference: US11564912B2, “Methods for treating irritable bowel syndrome (IBS)” (Salix Pharmaceuticals, Inc., priority 2008, dated 2023)
